Values of other authors, collected in publication PMC2908260 (Journal of nuclear medicine : official publication, Society …, 2010).

Conditions: other ^18F-labeled octreotide analogues

Substance: N^α-(1-deoxy-D-fructosyl)-N^ε-(2-[^18F]fluoropropionyl)-Lys^0-Tyr^3octreotate [[^18F]FP-Gluc-TOCA]
- log P: −1.70 ± 0.02
